US9644181B2, “Cell preparation containing myocardium-committed cell” (RIKEN, priority 2012, dated 2017)

What was measured:
[1] = system: adipose-tissue-derived multi-lineage/multi-potent progenitor cells (ADMPC); assay: Comparison of the induction of the expression of various markers by spermine and DMSO; format: cell-based, human
Experimental: (§1) Adipose tissues were provided by subjects from whom informed consent had been obtained by suction surgery from subcutaneous tissues. Neither steroid agent nor TZD had been administered to any of the subjects. Adipose tissues were cut into small pieces. Next, digestion was performed for 1 hour with shaking in 0.067% collagenase (Roche applied science)-containing Hanks' Balanced Salt Solution (HBSS) in a water bath at 37° C. The digested products were filtered through a Cell Strainer (BD Bioscience) and then centrifuged at 800 g for 10 minutes. Erythrocytes were removed by a specific gravity method using Lymphoprep (d=1.077) (Nycomed). The thus obtained Stromal Vascular Fraction (cells) was seeded into DMEM containing 10% fetal calf serum (Life Technologies). Cells were cultured for 24 hours so that they would adhere. After washing, the resultant was treated with EDTA, and ADMPC were thereby obtained. Next, ADMPC were seeded on a human-fibronectin-coated dish in medium I: 60% DMEM-low glucose, 40% MCDB201, […], 1 nM dexamethasone, 100 μM ascorbic acid, and 5% FBS at a density of 10,000 cells/cm^2, passaged 3 to 5 times, and then used for experiments.
(§2) Total RNA was isolated from the thus obtained cells using an RNeasy mini kit (Qiagen) according to protocols recommended by the manufacturer. Total RNA (500 ng) was subjected to DNase treatment, and then cDNA was synthesized using Superscript III reverse transcriptase RNase H (-) (Life Technologies).
(§3) Subsequently, TaqMan Universal PCR Master Mix (Applied Biosystems) (10 μl) and TaqMan Gene Expression Assays (Applied Biosystems) (1 μl) were added to the thus prepared cDNA (9 μl). Real-time PCR was performed using an Applied Biosystems 7900 Fast Real-Time PCR system under the following conditions: denaturation at 95° C. for 10 minutes and 40 cycles of 95° C. for 15 seconds and 60° C. for 1 minute. TaqMan probes and assay IDs (available from GenBank/NCBI (U.S.A.)) used for Islet-1, Nkx2.5, GATA-4, α-CA, cardiac troponin I, MLC, MHC, and GAPDH are listed in Table 1 below.
ADMPC passaged 4 times by plate culture were detached and washed with TrypLE Select (Life Technologies; the same applies hereafter) and were suspended at a concentration of 1×10^5/mL in Knockout-DMEM (Life Technologies; the same applies hereafter) supplemented with 0, 5, 25, 50, 100, 200, or 500 μM or 1 mM spermine (Wako Pure Chemical Industries, Ltd. (Japan); the same applies hereafter) and 20% KSR (Knockout Serum Replacement; Life Technologies; the same applies hereafter). 10 mL of cells was seeded on an EZ-Sphere low-adhesion culture dish (diameter: 10 cm, AGC; the same applies hereafter), and then suspension culture was performed. […]

[2] = system: adipose-tissue-derived multi-lineage/multi-potent progenitor cells (ADMPC); assay: Induction of the expression of myocardium-committed-cell markers in ADMPC, concentration series (TaqMan PCR, GAPDH ratios); format: cell-based, human
Experimental: as §1, §2, §3
ADMPC passaged 4 times by plate culture were detached and washed with TrypLE Select (Life Technologies; the same applies hereafter) and were suspended at a concentration of 1×10^5/mL in Knockout-DMEM (Life Technologies; […], Ltd. (Japan); the same applies hereafter) and 20% KSR (Knockout Serum Replacement; Life Technologies; the same applies hereafter). 10 mL of cells was seeded on an EZ-Sphere low-adhesion culture dish (diameter: 10 cm, AGC; the same applies hereafter), and then suspension culture was performed. After 24 hours, cells were collected, quantitative analysis of expression was performed by TaqMan PCR, and then GAPDH ratios were calculated.

[3] = system: adipose-tissue-derived multi-lineage/multi-potent progenitor cells (ADMPC); details: FIG. 1
Experimental: as §1
Total RNA was isolated from the thus obtained cells using an RNeasy mini kit (Qiagen) according to protocols recommended by the manufacturer. […]

C[S+](C)[O-] [DMSO]
Cardiac troponin I/DMSO ratio ([1]; 0.1% in medium, 48 hours): 1 | Cardiac α-actin/DMSO ratio ([1]; 0.1% in medium, 48 hours): 1 | GATA4/DMSO ratio ([1]; 0.1% in medium, 48 hours): 1 | Isl1/DMSO ratio ([1]; 0.1% in medium, 48 hours): 1 | MHC/DMSO ratio ([1]; 0.1% in medium, 48 hours): Not detected | MLC/DMSO ratio ([1]; 0.1% in medium, 48 hours): 1 | Nkx2.5/DMSO ratio ([1]; 0.1% in medium, 48 hours): 1

NCCCNCCCCNCCCN [Spermine, spermine]
expression of isl-1, nkx2.5, GATA-4, α-CA, cardiac troponin I and MHC ([2]; spermine 0, 5, 25, 50, 100, 200, 500 μM or 1 mM, suspension culture 24 hours): expression was confirmed | concentration at which all markers exhibited the highest expression levels ([2]; spermine series 0-1 mM, 24 hours): 100 µM | effect of presence or absence of growth factors (EGF, bFGF) on the expression levels ([3]; 100 μM spermine): did not significantly affect | expression of isl-1, nkx2.5, GATA-4, α-CA, cardiac troponin I, MHC and MLC ([3]; 100 μM, 24, 72 and 120 hours): Expression was confirmed | expression levels of all markers, treatment with spermine compared with treatment with DMSO ([1]; 100 μM spermine 24, 72, 120 hours vs 0.1% DMSO 48 hours): several to several hundred times greater | Cardiac troponin I/DMSO ratio ([1]; 100 μM, 1 day culture): 7.91 | Cardiac α-actin/DMSO ratio ([1]; 100 μM, 1 day culture): 192.84 | GATA4/DMSO ratio ([1]; 100 μM, 1 day culture): 3.75 | Isl1/DMSO ratio ([1]; 100 μM, 1 day culture): 6.79 | MHC/DMSO ratio ([1]; 100 μM, 1 day culture): 2.31 × 10^−6 | MLC/DMSO ratio ([1]; 100 μM, 1 day culture): 0.67 | Nkx2.5/DMSO ratio ([1]; 100 μM, 1 day culture): 3.58 | Cardiac troponin I/DMSO ratio ([1]; 100 μM, 3 days culture): 25.16 | Cardiac α-actin/DMSO ratio ([1]; 100 μM, 3 days culture): 169.75 | GATA4/DMSO ratio ([1]; 100 μM, 3 days culture): 8.19 | Isl1/DMSO ratio ([1]; 100 μM, 3 days culture): 10.44 | MHC/DMSO ratio ([1]; 100 μM, 3 days culture): 3.74 × 10^−5 | MLC/DMSO ratio ([1]; 100 μM, 3 days culture): 0.88 | Nkx2.5/DMSO ratio ([1]; 100 μM, 3 days culture): 5.19 | Cardiac troponin I/DMSO ratio ([1]; 100 μM, 5 days culture): 11.87 | Cardiac α-actin/DMSO ratio ([1]; 100 μM, 5 days culture): 42.85 | GATA4/DMSO ratio ([1]; 100 μM, 5 days culture): 12.15 | Isl1/DMSO ratio ([1]; 100 μM, 5 days culture): 3.49 | MHC/DMSO ratio ([1]; 100 μM, 5 days culture): 7.67 × 10^−6 | MLC/DMSO ratio ([1]; 100 μM, 5 days culture): 0.45 | Nkx2.5/DMSO ratio ([1]; 100 μM, 5 days culture): 7.47

NCCCCNCCCN [spermidine]
expression of isl-1, nkx2.5 and GATA-4 ([2]; spermidine 0, 5, 25, 50, 100, 200, 500 μM or 1 mM, suspension culture 24 hours): expression was confirmed | concentration at which all markers (isl-1, nkx2.5, GATA-4) exhibited the highest expression levels ([2]; spermidine series 0-1 mM, 24 hours): 200 µM
